What was measured:
[1] = tested on: ALK-rearranged (ALK^+) NSCLC; settings: cited from earlier work
[2] = tested on: Ad-EA mice (mEml4-Alk rearranged lung tumor); experiment: Lung tumor volume by MRI and survival in Ad-EA mice; type: in vivo, mouse
From the text: (§2) EML4-ALK transgenic (Tg) mice, which express the human EML4-ALK (E13;A20, human variant 1) driven by the SP-C promoter (henceforth referred as hEML4-ALK Tg mice), and BALB/c mice infected intratracheally with adenovirus carrying the CRISPR/Cas9 system to induce in vivo the Eml4-Alk rearrangement (E14;A20, mouse variant 1) (henceforth referred as Ad-EA mice). […] In these models, magnetic resonance imaging (MRI) (FIG. 1B) allowed precise cohort stratification and tumor follow-up.
Anatomical T2-weighted coronal images were acquired with a respiratory-triggered multislice fast spin echo RARE sequence (TR=4 s, TE=4.5 ms, Rare Factor (RF)=16, FOV=30 mm^2, Matrix=256×256, slices=16-20, slice thickness=1 mm, 2 averages, providing an in-plane spatial resolution of 117 μm) with a 7T MRI (Bruker Advance III, Ettlingen, Germany) scanner equipped with a quadrature 1H coil. Animals were anesthetized by intraperitoneal injection of a combination of ROMPUN® (Bayer, 5 mg/kg) and ZOLETIL 100® (Laboratoires Virbac, 20 mg/kg); breathing was monitored during acquisition of the MR images with a respiratory sensor (SA Instruments, Inc.). Tumor volumes and numbers of masses calculations were performed by manual segmentation (slice by slice contouring) with ITK-SNAP software (www.itksnap.org).
Syngeneic mice models transplanted with tumor cells were treated intraperitoneally with 200 μg of anti-PD-1 and/or anti-CTLA-4 (clone 9D9, Bioxcell), on days 3, 6, and 9 post-tumor transplantation (3 injections/per mouse).

mEml4-Alk cell lines = experiment: Cell viability assay (CellTiter-Glo) in mEml4-Alk cell lines; type: cell-based; settings: Mus musculus, mEml4-Alk^1, 72 h
Method: (§1) “[…]” is disclosed as SEQ ID NO: 22. […] “[…]” is disclosed as SEQ ID NO: 22.
Cell viability assay was performed in all immortalized mouse cell lines by using CellTiter-Glo (Promega, USA) according to the manufacturer's instructions. […] After 72 h, CellTiter-Glo reagent was added to each well and luminescence output data were taken by GloMax-Multi Detection System (Promega, USA). The correspondent IC50 value for each ALK inhibitor was calculated with GraphPad Prism 9 software (GraphPad, USA).

[3] = tested on: mEml4-Alk cell line tumors; experiment: mEml4-Alk syngeneic tumors in BALB/c mice; type: in vivo; settings: mEml4-Alk cell lines in syngeneic BALB/c mice
Method: as §1
To determine whether these differences in anaplastic lymphoma kinase (ALK)-specific CD8^+ T-cell responses translated into a different anti-tumor activity, mice were treated with either flank or lung tumors with immune checkpoint inhibitors (ICIs). […] Tumor-free mice were then rechallenged to assess ALK-specific CD8^+ T-cell memory response. […] In contrast to flank tumors, ICI was ineffective against Eml4-Alk^[…]-1 (“[…]” disclosed as SEQ ID NO: 22) lung tumors as measured by overall survival (FIG. 3I), and lung tumor histology (FIG. 3J). Systemic ALK-specific CD8^+ T-cell response was analyzed in mice bearing flank or lung tumors. […] It was concluded that the robustness of the spontaneous ALK-specific CD8^+ T-cell response depended on tumor localization and determined the response to immune checkpoint inhibitors (ICIs).
For syngeneic subcutaneous tumor transplantation, a total of 1×10^6 immortalized mouse cells were subcutaneously inoculated into the right dorsal flanks of 8-12 week-old BALB/c mice in 100 μL of phosphate-buffered saline (PBS). […] Tumor volume was measured by caliper measurements every 3 days in a blinded fashion and calculated according to the following equation: H. W^2/2. […]

[4] = tested on: hEML4-ALK Tg mice (ALK^+ lung tumors); experiment: Lung tumor volume by MRI and survival in hEML4-ALK Tg mice; settings: crizotinib 40 mg/kg or lorlatinib 2 mg/kg, MRI
From the text: as §2
Anatomical T2-weighted coronal images were acquired with a respiratory-triggered multislice fast spin echo RARE sequence (TR=4 s, TE=4.5 ms, Rare Factor (RF)=16, FOV=30 mm^2, Matrix=256×256, slices=16-20, slice thickness=1 mm, 2 averages, providing an in-plane spatial resolution of 117 μm) with a 7T MRI (Bruker Advance III, Ettlingen, Germany) scanner equipped with a quadrature 1H coil. Animals were anesthetized by intraperitoneal injection of a combination of ROMPUN® (Bayer, 5 mg/kg) and ZOLETIL 100® (Laboratoires Virbac, 20 mg/kg); breathing was monitored during acquisition of the MR images with a respiratory sensor (SA Instruments, Inc.). Tumor volumes and numbers of masses calculations were performed by manual segmentation (slice by slice contouring) with ITK-SNAP software (www.itksnap.org). […]

[5] = tested on: splenocytes isolated from mice vaccinated with ALK-DNA vaccine; experiment: IFN-γ ELISPOT screening of synthetic long peptides on splenocytes of ALK-DNA vaccinated mice; type: cell-based, mouse; settings: ALK-DNA vaccine group, average ±SEM
Method: Despite the known immunogenicity of the ALK protein, the data imply that ALK^+ mouse lung tumors induce an immune response insufficient to be activated by immune checkpoint inhibitor (ICI) treatment. Therefore, it was decided to directly investigate anti-ALK immune responses during ICI treatment by identifying the specific ALK peptides that induce T-cell mediated immune responses in mouse models. To identify the ALK-specific T-cell epitopes, an in vitro peptide screening was performed. A set of 21 overlapping synthetic long peptides (SLP), that encompassed the ALK cytoplasmic domain (FIG. 9A; Table 1), was incubated with splenocytes isolated from mice vaccinated with a vector encoding most of the ALK cytoplasmic domain (ALK-DNA vaccine) as previously described in Chiarle R, Martinengo C, Mastini C, Ambrogio C, D'Escamard V, Fori G, et al. The anaplastic lymphoma kinase is an effective oncoantigen for lymphoma vaccination.
The interferon-γ release enzyme-linked immune absorbent spot (ELISPOT) assay was performed using a commercial kit (Mouse IFN-γ ELISPOT, Mabtech, Stockholm, Sweden) according to the manufacturer's instructions. Briefly, the ELISPOT plate was prepared in sterile conditions and washed with sterile PBS (200 μL/well) for 5 times. […] All plates were evaluated by a computer assisted ELISPOT reader (CTL Immunospot analyzer, OH, USA).

[6] = tested on: ALK-specific CD8+ T cells; experiment: Vaccination of HLA B*07:02 transgenic mice, IFN-γ ELISPOT of splenocytes; type: in vivo, mouse; settings: short and long peptide groups pooled, of 12 mice
From the text: Transgenic mice expressing the human HLA B*07:02 were vaccinated with different peptides containing the core epitopes […] (SEQ ID NO: 4) or […] (SEQ ID NO: 3): […] (SEQ ID NO: 4) (IVRshort), […] (SEQ ID NO: 1) (IVRlong), […] (SEQ ID NO: 3) (RPRshort), […] (SEQ ID NO: 2) (RPRlong). ALK-specific CD8+ T cells responses were detected in 12/12 (100%) mice vaccinated with either the IVRshort peptide or the IVRlong peptide and in 6/12 (50%) of mice vaccinated with either the PRPshort peptide or the RPRlong (FIG. 7D). Finally, ALK-specific CD8+ T cells responses were also detected in peripheral blood mononuclear cells (PBMCs) from 3/6 (50%) ALK+ NSCLC patients when stimulated with the […] (SEQ ID NO: 4) peptide but not with the […] (SEQ ID NO: 3) peptide (FIGS. 7E and 16B; Tables 6-7). Overall, four immunogenic ALK peptides in the context of the HLA A*02:01 and B*07:02 alleles were identified by mass spectrometry that can pave the way toward the design of a human ALK vaccine.
The interferon-γ release enzyme-linked immune absorbent spot (ELISPOT) assay was performed using a commercial kit (Mouse IFN-γ ELISPOT, Mabtech, Stockholm, Sweden) according to the manufacturer's instructions. Briefly, the ELISPOT plate was prepared in sterile conditions and washed with sterile PBS (200 μL/well) for 5 times. Consecutively, the plate was conditioned with fresh DMEM medium (200 μL/well) contained 10% of the same fetal bovine serum used for the splenocytes suspension and incubated for 30 minutes at room temperature. After incubation, the medium was discarded and 2.5×10^5 splenocytes were plated in each well together with the appropriate stimuli. The plate was incubated over/night at 37° C. in humidified conditions with 5% C02. The day after, cells were discarded, and the plate was washed 5 times with PBS. Biotinylated detection anti-IFN-γ mAb (1 μg/mL) was added into the wells, followed by 2 hours of incubation at room temperature. […] All plates were evaluated by a computer assisted ELISPOT reader (CTL Immunospot analyzer, OH, USA).

[7] = tested on: CD8^+ T cells from NSCLC patients; experiment: IFN-γ ELISPOT of patient CD8^+ T cells expanded with ALK peptides; type: cell-based, human
Method: Non-small cell lung cancer (NSCLC) patients, at the Dana-Farber Cancer Institute, consented to an institutional review board (IRB)-approved correlative research protocol that allowed for review of medical records and sample collection. Lung cancer mutation status was determined using standard CLIA-certified clinical assays in the Center for Advanced Molecular Diagnostics at Brigham and Women's Hospital. For each patient, 10 mL of whole blood was collected into K3-EDTA tubes, and peripheral blood mononuclear cells (PBMCs) (peripheral blood mononuclear cells) were isolated with Ficoll-Paque Plus density separation (GE Healthcare), and consequently frozen until use.
Frozen PBMCs from patients with NSCLC were thawed, resuspended in cold RPMI containing 3% of human AB heat-inactivated serum (Sigma Aldrich), and cultured in a T-175 culture flask for 50 min. at 37° C. in 5% C02 to induce the attachment of CD14^+ monocytes to the plastic. The remaining floating PBMCs were removed with gentle washes of PBS and warm media. Monocytes were then cultured in RPMI containing 3% of human AB heat-inactivated serum, 2% Penicillin/Streptomycin, 1% Glutamine, and 25 nM HEPES with GM-CSF (120 ng/mL, Preprotech) and IL-4 (70 ng/mL, Preprotech). Fresh GM_CSF and IL-4 were added on days 3 and 5. On day 6, Poly I:C (30 μg/mL, Sigma Aldrich) was added for 24 hours to induce DCs maturation.
B cells were expanded using the CD40 system (68,69). Briefly, NIH-3T3-CD40L cells were irradiated (9600 rads) and plated in a 6 well plate (400.000 cells/well) without Gentamycin. The following day, 8×10^6 PBMCs were resuspended in 4 mL of IMDM (Glutamine, Hepes, Gibco) containing 10% human AB serum heat-inactivated (Sigma Aldrich), Transferrin (50 μg/ml, Lonza), Insulin (5 μg/ml, BioXtra), Cyclosporine A (5.5×10^−7M, Sigma Aldrich), IL-4 (2 ng/ml, Preprotech) and Gentamycin (15 μg/ml, Gibco), and co-cultured with the irradiated NIH-3T3-CD40L for 5 days. PBMCs were then counted and cultured at the same concentration together with newly irradiated NIH-3T3-CD40L for 3 more days. After 12 days 95% of the cells were CD19^+ and could be expanded similarly every 3-4 days at a concentration of 10^6/mL. B cells were always used after 15 days of culture.
CD8^+ T cells were purified using magnetic beads (CD8^+ T cell isolation Kit, Miltenyi) and co-cultured with DCs (20:1; around 10^6 CD8^+ T cells:50.000 DCs) in AIM V media (Gibco) with 5% human AB heat-inactivated serum (Sigma Aldrich), 20 units/mL IL-2 (Preprotech) and 10 ng/mL IL-7 (Preprotech). Before co-culture, DCs were pulsed with the 10 μg/mL of the desired peptide in AIM V media without serum at 37° C. in 5% CO2. Fresh IL-2 and IL-7 were added every 3-4 days. After 7 days, 3-4 million PBMCs CD8^+ T cells were co-cultured with peptide-pulsed DCs and cytokines (20-40:1 ratio). 3rd and 4th stimulation stimulations were done using 4-5 million CD8^+ T cells and peptide-pulsed irradiated B cells (ratio 4:1, 3000 rads) and fresh IL2 and IL7 (days 14 and 21). CD8^+ T-cell responses were then evaluated in an IFN-γ-ELISPOT assay (Mabtech) using peptide-pulsed B cells (1:1 ratio) as target cells. CD8^+ T cells were purified the day before the ELISPOT assay and rested overnight in media without cytokines. The ELISPOT was performed with FBS heat inactivated as recommended by the manufacturer. When the human material was limited, PBMCs or B0 cells were used in the first round of stimulation.

COc1cc(N2CCC(N3CCN(C)CC3)CC2)ccc1Nc1ncc(Cl)c(Nc2ccccc2P(C)(C)=O)n1 [brigatinib]
time to disease progression in most patients ([1]; first-line treatment): three

C[C@H]1Oc2cc(cnc2N)-c2c(nn(C)c2C#N)CN(C)C(=O)c2ccc(F)cc21 [lorlatinib]
tumor response at the end of treatment ([2]; crizotinib 40 mg/kg or lorlatinib 2 mg/kg, MRI): almost complete regression of tumors
tumor response by MRI, prolonged treatment ([2]; lorlatinib up to 8 weeks, tumors relapsed upon suspension): complete remission by MRI
IC50 (mEml4-Alk cell lines): 1.17 nM
tumor sensitivity in vivo [3]: marked sensitivity
tumor response at the end of treatment [4]: almost complete regression of tumors
average disease control ([1]; patients with resistance to earlier ALK TKIs): 7 months

GYQQQGLPLEAATAPGAGHYEDTILKSKNSMNQPGP [SLP21]
number of IFN-γ-spots [5]: Weaker responses

LTANMKEVPLFRLRHFPCGNVNYGYQQQGLPLEAAT [SLP20]
number of IFN-γ-spots [5]: Weaker responses

RPRPSQPSSL
mice with ALK-specific CD8+ T cells responses detected [6]: 50%
Average Spots Forming Units (2 wells)/20 000 CD8^+ T cells ([7]; Patient 1 (ALK), IVRCIGVSL expanded): 5.5 Spots Forming Units/20 000 CD8
Average Spots Forming Units (2 wells)/20 000 CD8^+ T cells ([7]; Patient 1 (ALK), RPRPSQPSSL expanded): 4.5 Spots Forming Units/20 000 CD8
Average Spots Forming Units (2 wells)/20 000 CD8^+ T cells ([7]; Patient 2 (ALK), IVRCIGVSL expanded): 27.5 Spots Forming Units/20 000 CD8
Average Spots Forming Units (2 wells)/20 000 CD8^+ T cells ([7]; Patient 2 (ALK), RPRPSQPSSL expanded): 0 Spots Forming Units/20 000 CD8
Average Spots Forming Units (2 wells)/20 000 CD8^+ T cells ([7]; Patient 3 (ALK), IVRCIGVSL expanded): 6.5 Spots Forming Units/20 000 CD8
Average Spots Forming Units (2 wells)/20 000 CD8^+ T cells ([7]; Patient 3 (ALK), RPRPSQPSSL expanded): 3 Spots Forming Units/20 000 CD8
Average Spots Forming Units (2 wells)/20 000 CD8^+ T cells ([7]; Patient 4 (ALK), RPRPSQPSSL expanded): 2 Spots Forming Units/20 000 CD8
Average Spots Forming Units (2 wells)/20 000 CD8^+ T cells ([7]; Patient 5 (KRASG12V), RPRPSQPSSL expanded): 1 Spots Forming Units/20 000 CD8
Average Spots Forming Units (2 wells)/20 000 CD8^+ T cells ([7]; Patient 6 (EGFR del exon19), IVRCIGVSL expanded): 1.5 Spots Forming Units/20 000 CD8
Average Spots Forming Units (2 wells)/20 000 CD8^+ T cells ([7]; Patient 6 (EGFR del exon19), RPRPSQPSSL expanded): 10 Spots Forming Units/20 000 CD8
Average Spots Forming Units (2 wells)/20 000 CD8^+ T cells ([7]; Patient 7 (KRASG12D), IVRCIGVSL expanded): 1 Spots Forming Units/20 000 CD8
Average Spots Forming Units (2 wells)/20 000 CD8^+ T cells ([7]; Patient 7 (KRASG12D), RPRPSQPSSL expanded): 3 Spots Forming Units/20 000 CD8
Average Spots Forming Units (2 wells)/20 000 CD8^+ T cells ([7]; Patient 8 (EGFR del exon19), IVRCIGVSL expanded): 2 Spots Forming Units/20 000 CD8
Average Spots Forming Units (2 wells)/20 000 CD8^+ T cells ([7]; Patient 8 (EGFR del exon19), RPRPSQPSSL expanded): 10 Spots Forming Units/20 000 CD8
